Earlier results in patent EP0622459A1, “Fused proteins for preparing vasoactive intestinal polypeptide analogs, method of preparing same and recombinant plasmids and transformant microorganisms” (SANWA KAGAKU KENKYUSHO CO., LTD., priority 1993, dated 1994).
Ends that are not written are not given here.

Settings: prior-art analogs, result in words

In the case of “Leu¹⁷-VIP-OH: genetically engineered VIP analog of the prior art (JP-A-1-296996 and JP-A-3-280893) (HSDAVFTDNYTRLRKQLAVKKYLNSILN-OH; UniProt P01282 125-152, looked up, variant M17L)”, the “biological activity compared with VIP” value is listed as “only comparable to naturally occurring VIP”.
